Bridge positions count the residues as written; N and C are the ends. Square brackets hold non-standard residues; d marks the D form. Peptide text beside a SMILES is read from it. NMeW = CN[C@@H](Cc1c[nH]c2ccccc12)C(=O)O; NMeR = CN[C@@H](CCCNC(=N)N)C(=O)O
Columns and labels:
Melanocortin receptor 5 = Melanocortin receptor 5 (Homo sapiens, UniProt P33032); assay: Displacement of [125I]-NDP-alpha-MSH from human MC5R expressed in HEK2936E cell membrane measured after 16-23 hrs by 1450 microbeta trilux scintillation proximity assay; assay type: cell membranes
Melanocortin receptor 3 [1] = target: T1, Melanocortin receptor 3 (Homo sapiens, UniProt P41968); assay: Displacement of [125I]-NDP-alpha-MSH from human MC3R expressed in HEK2936E cell membrane measured after 16-23 hrs by 1450 microbeta trilux scintillation proximity assay; assay type: cell membranes
[2] = target: T2, Melanocyte-stimulating hormone receptor (Homo sapiens, UniProt Q01726); assay: Displacement of [125I]-NDP-alpha-MSH from human MC1R expressed in HEK2936E cell membrane measured after 16-23 hrs by 1450 microbeta trilux scintillation proximity assay; assay type: cell membranes
Melanocortin receptor 3 [3] = target: T1, Melanocortin receptor 3; assay: Agonist activity at human melanocortin receptor 3 expressed in human T-REx-293 cells assessed as stimulation of intracellular cAMP accumulation incubated for 45 mins by LANCE cAMP assay; assay type: functional, cell-based
[4] = target: T2, Melanocyte-stimulating hormone receptor; assay: Agonist activity at human melanocortin receptor 1 expressed in human T-Rex-293 cells assessed as stimulation of intracellular cAMP accumulation incubated for 45 mins by LANCE cAMP assay; assay type: functional, cell-based
Melanocortin receptor 4 [5] = target: T3, Melanocortin receptor 4 (Homo sapiens, UniProt P32245); assay: Agonist activity at human melanocortin receptor 4 expressed in human T-REx-293 cells using high doxycycline assessed as stimulation of intracellular cAMP accumulation incubated for 45 mins by LANCE cAMP assay; assay type: functional
Melanocortin receptor 4 [6] = target: T3, Melanocortin receptor 4; assay: Displacement of [125I]-NDP-alpha-MSH from human MC4R expressed in HEK2936E cell membrane measured after 16-23 hrs by 1450 microbeta trilux scintillation proximity assay; assay type: cell membranes
Melanocortin receptor 4 [7] = target: T3, Melanocortin receptor 4; assay: Agonist activity at human melanocortin receptor 4 expressed in human T-REx-293 cells using low doxycycline assessed as stimulation of intracellular cAMP accumulation incubated for 45 mins by LANCE cAMP assay; assay type: functional, cell-based

Melanocortin receptor 5, sequence (P33032 whole entry): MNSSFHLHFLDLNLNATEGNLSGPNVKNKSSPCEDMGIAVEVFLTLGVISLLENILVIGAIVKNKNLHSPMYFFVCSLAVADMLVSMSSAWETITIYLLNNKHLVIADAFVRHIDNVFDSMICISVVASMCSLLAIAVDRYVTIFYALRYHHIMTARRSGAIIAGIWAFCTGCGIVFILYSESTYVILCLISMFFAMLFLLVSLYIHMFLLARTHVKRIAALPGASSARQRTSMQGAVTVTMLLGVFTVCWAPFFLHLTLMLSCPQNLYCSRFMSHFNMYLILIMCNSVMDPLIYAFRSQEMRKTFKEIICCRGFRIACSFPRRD
T3 sequence (P32245 whole entry): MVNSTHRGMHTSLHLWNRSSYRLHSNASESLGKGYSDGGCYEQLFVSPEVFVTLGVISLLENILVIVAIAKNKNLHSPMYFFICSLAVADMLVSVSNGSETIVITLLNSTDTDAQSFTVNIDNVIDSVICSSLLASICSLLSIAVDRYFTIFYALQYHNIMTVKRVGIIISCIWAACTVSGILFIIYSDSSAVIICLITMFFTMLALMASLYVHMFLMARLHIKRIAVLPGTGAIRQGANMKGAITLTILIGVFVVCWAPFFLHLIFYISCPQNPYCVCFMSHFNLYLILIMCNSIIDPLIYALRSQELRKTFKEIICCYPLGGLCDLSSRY
T1 sequence (P41968 whole entry): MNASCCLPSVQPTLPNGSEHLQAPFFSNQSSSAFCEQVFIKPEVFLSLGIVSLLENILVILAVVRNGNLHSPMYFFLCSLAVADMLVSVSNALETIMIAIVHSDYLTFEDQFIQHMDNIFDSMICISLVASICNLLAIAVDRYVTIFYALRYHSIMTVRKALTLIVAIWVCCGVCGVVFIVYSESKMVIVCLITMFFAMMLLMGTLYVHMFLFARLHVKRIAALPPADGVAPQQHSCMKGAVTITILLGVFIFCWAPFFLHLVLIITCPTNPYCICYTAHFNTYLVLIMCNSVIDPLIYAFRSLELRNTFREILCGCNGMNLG
T2 sequence (Q01726 whole entry): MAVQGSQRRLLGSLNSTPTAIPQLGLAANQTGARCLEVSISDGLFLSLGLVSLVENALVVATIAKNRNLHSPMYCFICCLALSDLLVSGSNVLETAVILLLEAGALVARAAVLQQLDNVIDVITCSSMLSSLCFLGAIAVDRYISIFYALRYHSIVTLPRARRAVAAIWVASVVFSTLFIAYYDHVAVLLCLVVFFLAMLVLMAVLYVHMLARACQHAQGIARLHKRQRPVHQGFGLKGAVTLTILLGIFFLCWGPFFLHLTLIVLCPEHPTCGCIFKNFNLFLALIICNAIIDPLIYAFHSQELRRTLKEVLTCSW

Row | IC50 (Melanocortin receptor 5) [nM] | Ki (Melanocortin receptor 3 [1]) [nM] | Ki [2] [nM] | EC50 (Melanocortin receptor 3 [3]) [nM] | EC50 [4] [nM] | EC50 (Melanocortin receptor 4 [5]) [nM] | Ki (Melanocortin receptor 4 [6]) [nM] | EC50 (Melanocortin receptor 4 [7]) [nM] | SMILES
1 | 174 | 269 | 1.48 | 17.4 | 0.138 | – | – | – | CC[C@H](C)[C@@H]1NC(=O)[C@@H]2CCCN2C(=O)[C@H](Cc2c[nH]c3ccccc23)NC(=O)[C@H](CCCNC(=N)N)NC(=O)[C@@H](Cc2ccccc2)NC(=O)[C@H](Cc2c[nH]cn2)NC(=O)[C@H]([C@@H](C)O)NC(=O)[C@@H]2CSSC[C@H](NC1=O)C(=O)N[C@@H](Cc1c[nH]cn1)C(=O)N[C@H](Cc1ccccc1)C(=O)N[C@@H](CCCNC(=N)N)C(=O)N[C@@H](Cc1c[nH]c3ccccc13)C(=O)N[C@@H](CCCNC(=N)N)C(=O)N2
2 | 631 | 708 | 11.7 | 38.9 | 0.832 | 3.16 | 72.4 | 52.5 | CC[C@H](C)[C@@H]1NC(=O)[C@@H]2CCCN2C(=O)[C@H](Cc2c[nH]c3ccccc23)NC(=O)[C@H](CCCNC(=N)N)N(C)C(=O)[C@@H](Cc2ccccc2)NC(=O)[C@H](Cc2c[nH]cn2)NC(=O)[C@H]([C@@H](C)O)NC(=O)[C@@H]2CSSC[C@H](NC1=O)C(=O)N[C@@H](Cc1c[nH]cn1)C(=O)N[C@H](Cc1ccccc1)C(=O)N[C@@H](CCCCN)C(=O)N[C@@H](Cc1c[nH]c3ccccc13)C(=O)N[C@@H](C)C(=O)N2
3 | 1780 | 891 | 1.55 | 16.2 | 0.427 | 1.2 | 50.1 | 28.2 | CC[C@H](C)[C@@H]1NC(=O)[C@@H]2CCCN2C(=O)[C@H](Cc2c[nH]c3ccccc23)NC(=O)[C@H](CCCNC(=N)N)N(C)C(=O)[C@@H](Cc2ccccc2)NC(=O)[C@H](Cc2c[nH]cn2)NC(=O)[C@H]([C@@H](C)O)NC(=O)[C@@H]2CSSC[C@H](NC1=O)C(=O)N[C@@H](Cc1c[nH]cn1)C(=O)N[C@H](Cc1ccccc1)C(=O)N[C@@H](CCCNC(=N)N)C(=O)N[C@@H](C)C(=O)N[C@@H](CCCNC(=N)N)C(=O)N2
4 | 174 | 389 | 1.12 | 7.76 | 0.135 | – | – | – | CC[C@H](C)[C@@H]1NC(=O)[C@@H]2CCCN2C(=O)[C@H](Cc2c[nH]c3ccccc23)NC(=O)[C@H](CCCNC(=N)N)N(C)C(=O)[C@@H](Cc2ccccc2)NC(=O)[C@H](Cc2c[nH]cn2)NC(=O)[C@H]([C@@H](C)O)NC(=O)[C@@H]2CSSC[C@H](NC1=O)C(=O)N[C@@H](Cc1c[nH]cn1)C(=O)N[C@H](Cc1ccccc1)C(=O)N[C@@H](CCCNC(=N)N)C(=O)N[C@@H](Cc1c[nH]c3ccccc13)C(=O)N[C@@H](CCCNC(=N)N)C(=O)N2
5 | 200 | 85.1 | 0.912 | 1.45 | 0.0562 | 0.178 | 13.5 | 2.04 | CC[C@H](C)[C@@H]1NC(=O)[C@@H]2CCCN2C(=O)[C@H](Cc2c[nH]c3ccccc23)NC(=O)[C@H](CCCNC(=N)N)N(C)C(=O)[C@@H](Cc2ccccc2)NC(=O)[C@H](Cc2c[nH]cn2)NC(=O)[C@H]([C@@H](C)O)NC(=O)[C@@H]2CSSC[C@H](NC1=O)C(=O)N[C@@H](Cc1c[nH]cn1)C(=O)N[C@H](Cc1ccccc1)C(=O)N[C@@H](CCCNC(=N)N)C(=O)N[C@@H](Cc1c[nH]c3ccccc13)C(=O)N[C@@H](C)C(=O)N2
6 | 1000 | > 1000 | 339 | 282 | 64.6 | 3.09 | 617 | 46.8 | CC[C@H](C)[C@@H]1NC(=O)[C@@H]2CCCN2C(=O)[C@H](Cc2c[nH]c3ccccc23)N(C)C(=O)[C@H](CCCNC(=N)N)NC(=O)[C@@H](Cc2ccccc2)NC(=O)[C@H](Cc2cnc[nH]2)NC(=O)[C@H]([C@@H](C)O)NC(=O)[C@@H]2CSSC[C@H](NC1=O)C(=O)N[C@@H](Cc1ccccc1)C(=O)N1CCC[C@H]1C(=O)N[C@@H](CC(=O)O)C(=O)NCC(=O)N[C@@H](CCCNC(=N)N)C(=O)N2 (cyclo(CFPDGRCTH[dF]R[NMeW]PI); disulfide 1-7)
7 | 676 | 389 | 2.82 | 6.61 | 0.794 | 0.302 | 10.7 | 3.47 | CC[C@H](C)[C@@H]1NC(=O)[C@@H]2CCCN2C(=O)[C@H](Cc2c[nH]c3ccccc23)NC(=O)[C@H](CCCNC(=N)N)N(C)C(=O)[C@@H](Cc2ccccc2)NC(=O)[C@H](Cc2c[nH]cn2)NC(=O)[C@H]([C@@H](C)O)NC(=O)[C@@H]2CSSC[C@H](NC1=O)C(=O)N[C@@H](Cc1c[nH]cn1)C(=O)N[C@@H](C)C(=O)N[C@@H](CCCNC(=N)N)C(=O)N[C@@H](Cc1c[nH]c3ccccc13)C(=O)N[C@@H](CCCNC(=N)N)C(=O)N2
8 | 170 | 107 | 1.41 | 1.15 | 0.0912 | 0.132 | 25.7 | 1.23 | CC[C@H](C)[C@@H]1NC(=O)[C@H](C)NC(=O)[C@H](Cc2c[nH]c3ccccc23)NC(=O)[C@H](CCCNC(=N)N)N(C)C(=O)[C@@H](Cc2ccccc2)NC(=O)[C@H](Cc2c[nH]cn2)NC(=O)[C@H]([C@@H](C)O)NC(=O)[C@@H]2CSSC[C@H](NC1=O)C(=O)N[C@@H](Cc1c[nH]cn1)C(=O)N[C@H](Cc1ccccc1)C(=O)N[C@@H](CCCNC(=N)N)C(=O)N[C@@H](Cc1c[nH]c3ccccc13)C(=O)N[C@@H](C)C(=O)N2
9 | 162 | 380 | 19.5 | 20 | 3.63 | 0.457 | 10.2 | 2.57 | CC[C@H](C)[C@@H]1NC(=O)[C@@H]2CCCN2C(=O)[C@H](Cc2c[nH]c3ccccc23)NC(=O)[C@H](CCCNC(=N)N)N(C)C(=O)[C@@H](Cc2ccccc2)NC(=O)[C@H](Cc2c[nH]cn2)NC(=O)[C@H]([C@@H](C)O)NC(=O)[C@@H]2CSSC[C@H](NC1=O)C(=O)N[C@@H](C)C(=O)N[C@H](Cc1ccccc1)C(=O)N[C@@H](CCCNC(=N)N)C(=O)N[C@@H](Cc1c[nH]c3ccccc13)C(=O)N[C@@H](CCCNC(=N)N)C(=O)N2
10 | 10000 | 3160 | 56.2 | 398 | 5.5 | 63.1 | 2040 | 3630 | CC(=O)N[C@H]1CSSC[C@@H](C(N)=O)NC(=O)[C@H](CCCNC(=N)N)NC(=O)[C@H](Cc2c[nH]c3ccccc23)N(C)C(=O)[C@H](CCCNC(=N)N)N(C)C(=O)[C@H](Cc2ccccc2)NC(=O)[C@H](Cc2c[nH]cn2)NC1=O (Ac-CHF[NMeR][NMeW]RC-NH2; disulfide 1-7)
11 | 2690 | 5010 | 41.7 | 95.5 | 3.63 | 3.89 | 309 | 105 | CC[C@H](C)[C@@H]1NC(=O)[C@@H]2CCCN2C(=O)[C@H](Cc2c[nH]c3ccccc23)NC(=O)[C@H](CCCNC(=N)N)N(C)C(=O)[C@@H](Cc2ccccc2)NC(=O)[C@H](Cc2c[nH]cn2)NC(=O)[C@H]([C@@H](C)O)NC(=O)[C@@H]2CSSC[C@H](NC1=O)C(=O)N[C@@H](Cc1c[nH]cn1)C(=O)N[C@H](Cc1ccccc1)C(=O)N[C@@H](CCC(=O)O)C(=O)N[C@@H](Cc1c[nH]c3ccccc13)C(=O)N[C@@H](CCCNC(=N)N)C(=O)N2
12 | 129 | 100 | 3.72 | 15.8 | 1.32 | – | – | – | CC[C@H](C)[C@@H]1NC(=O)[C@@H]2CCCN2C(=O)[C@H](Cc2c[nH]c3ccccc23)NC(=O)[C@H](CCCNC(=N)N)N(C)C(=O)[C@@H](Cc2ccc3ccccc3c2)NC(=O)[C@@H]2CCCN2C(=O)[C@@H]2CCCN2C(=O)[C@@H]2CSSC[C@H](NC1=O)C(=O)N[C@@H](Cc1c[nH]cn1)C(=O)N[C@H](Cc1ccccc1)C(=O)N[C@@H](CCCNC(=N)N)C(=O)N[C@@H](Cc1c[nH]c3ccccc13)C(=O)N[C@@H](C)C(=O)N2
13 | 550 | 135 | 8.13 | 4.07 | 1.07 | – | – | – | C[C@@H]1NC(=O)[C@H](Cc2c[nH]c3ccccc23)NC(=O)[C@H](CCCNC(=N)N)NC(=O)[C@@H](Cc2ccccc2)NC(=O)[C@H](Cc2c[nH]cn2)NC(=O)[C@@H]2CSSC[C@H](NC1=O)C(=O)N[C@@H]([C@@H](C)O)C(=O)N[C@@H](Cc1c[nH]cn1)C(=O)N[C@H](Cc1ccccc1)C(=O)N(C)[C@@H](CCCNC(=N)N)C(=O)N[C@@H](Cc1c[nH]c3ccccc13)C(=O)N1CCC[C@H]1C(=O)N[C@@H](C)C(=O)N2

Row | SMILES | IC50 (Melanocortin receptor 5) [nM] | Ki (Melanocortin receptor 3 [1]) [nM] | Ki [2] [nM] | EC50 (Melanocortin receptor 3 [3]) [nM] | EC50 [4] [nM] | EC50 (Melanocortin receptor 4 [5]) [nM] | Ki (Melanocortin receptor 4 [6]) [nM] | EC50 (Melanocortin receptor 4 [7]) [nM]
14 | CC[C@H](C)[C@@H]1NC(=O)[C@@H]2CCCN2C(=O)[C@@H]2CCCN2C(=O)[C@H]([C@@H](C)CC)NC(=O)[C@H](CO)NC(=O)[C@H](C)NC(=O)[C@H]([C@@H](C)O)NC(=O)[C@@H]2CSSC[C@H](NC1=O)C(=O)N[C@@H](Cc1c[nH]cn1)C(=O)N[C@H](Cc1ccccc1)C(=O)N(C)[C@@H](CCCNC(=N)N)C(=O)N(C)[C@@H](Cc1c[nH]c3ccccc13)C(=O)N[C@@H](CCCNC(=N)N)C(=O)N2 (cyclo(CTASIPPICH[dF][NMeR][NMeW]R); disulfide 1-9) | 724 | > 1000 | – | 129 | 0.759 | 58.9 | > 1000 | > 1000
